Laboratory results as given in ChEMBL document CHEMBL5528062 (J Med Chem, 2024).

Key:
[1] = system: Mycobacterium tuberculosis; assay: Induction of resistance development in Mycobacterium tuberculosis harbouring katG F594C mutant assessed as resistance frequency at 5 times of MIC by visual analysis; format: functional
[2] = system: Mycobacterium tuberculosis; assay: Induction of resistance development in Mycobacterium tuberculosis harbouring atpE gene assessed as resistance frequency at 5 times of MIC by visual analysis; format: functional

| SMILES | Activity [1] [%] | Activity [2] [%] |
| --- | --- | --- |
| C[C@]1(COc2ccc(N3CCC(Oc4ccc(OC(F)(F)F)cc4)CC3)cc2)Cn2cc([N+](=O)[O-])nc2O1 | 2 | – |
| COc1nc2ccc(Br)cc2cc1[C@@H](c1ccccc1)[C@@](O)(CCN(C)C)c1cccc2ccccc12 [BEDAQUILINE] | 5.26 | 17.3 |
